According to patent publication US9073902B2 (BioEnergenix, LLC, priority 2011, dated 2015):

Target: T1, hPASK (Homo sapiens, UniProt Q96RG2)
T1 construct: IC50 Kinase Domain; purchased Invitrogen
Experiment: PAS Kinase FRET Assay (Biochemical Assay for hPASK Activity)
Conditions: TR-FRET (665 nm/615 nm), 2 hours at 25° C.; read-out: IC50 Kinase Domain
Source text: Biochemical Assay for hPASK Activity
The aim of the FRET assay is to determine the inhibition potential of test compounds on targeted kinase. This assay platform provides a homogenous screening method for measuring kinase activity by quantitating the amount of phospho-substrate in solution following a kinase reaction.
In the presence of kinase and ATP, the Ulight-peptide is phosphorylated and captured by an anti-phospho-substrate antibody, which brings the Eu chelate donor and Ulight acceptor dyes into close proximity. Upon excitation at 340 nm, the Eu chelate transfers its energy to the Ulight dye, resulting in a fluorescent light emission at 665 nm.
Titration of kinase at 1 mM ATP was achieved via the following protocol. After making serial three-fold dilutions of PASK (Invitrogen) in reaction buffer across the plate; 5 μl of kinase dilution and 5 μl substrate/ATP mix were added to the wells of the white Optiplate-384 (PerkinElmer). The contents of the plate were and incubated at RT for 1 h. The reaction was stopped by adding 5 μl of stop solution to each test well followed by mixing and incubation at RT for 10 minutes. 5 μl of detection mix (detection antibody diluted in detection buffer) was added; the contents of the plate were mixed and then incubated in the dark for 1 hour at RT. The signal was recorded at TR-FRET mode (665 nm/615 nm). The results were graphed to calculate the EC50.
Titration of ATP at the EC50 concentration of kinase to determine ATP Km, app. was performed using the following method. After making serial dilutions of ATP (Invitrogen), 5 μl of ATP dilution and 5 μl substrate/kinase mix were added to the wells of the white Optiplate-384 (PerkinElmer). The contents of the plate were and incubated at RT for 1 h. The reaction was stopped by adding 5 μl of stop solution to each test well followed by mixing and incubation at RT for 10 minutes. 5 μl of detection mix (detection antibody diluted in detection buffer) was added; the contents of the plate were mixed and then incubated in the dark for 1 hour at RT. The signal was recorded at TR-FRET mode (665 nm/615 nm). The results were graphed to calculate the EC50 as the ATP Km,app.
Compound screening was done via the following method. 10 mM stock solution of test compound in DMSO was prepared by dissolving test compound in DMSO at RT for 1 hour, and then sonicating at 100% output for 8 minutes. If compound is not soluble under this condition, it was diluted to 3 mM. Kinase reaction buffer was prepared containing 10 mM MgCl2, 50 mM HEPES, 1 mM EGTA, 0.01% TWEEN-20, 2 mM DTT. Serial dilutions of the test compounds were prepared at 4× final assay concentrations using Freedom EVO200® dispensing system as follows: 12×10^−5 M, 4×10^−5M, 1.33×10^−5M, 4.44×10^−6M, 1.48×10^−6M, 4.92×10^−7M, 1.65×10^−7M, 5.48×10^−7 M, 1.82×10^−8 M, 6.09×10^−9, 2.03×10^−9 M. Test compounds (2.5 μl at 4× the final assay concentration) was added to wells using Freedom EVO200® dispensing system. As a positive control, 2.5 μl of positive compound was added to assay wells, and 2.5 μl of DMSO to assay wells as vehicle control. Kinase solution was prepared in reaction buffer at 2× final assay concentration. Kinase solution (5 μl) was added to each well of the assay plate. The substrate and ATP solution was prepared in kinase reaction buffer at 4× final assay concentration. The kinase reaction was started by adding 2.5 μl of substrate+ATP mix solution to each well of the assay plate. The plate is mixed on a plate shaker; then covered and allowed to react for 2 hours in the dark at 25° C. without shaking. The reaction was stopped by adding 5 μl of stop solution to each test well followed by mixing and incubation at RT for 10 minutes in the dark. 5 μl of detection mix (detection antibody diluted in detection buffer) was added; the contents of the plate were mixed and then incubated in the dark for 1 hour at RT. The signal was recorded at TR-FRET mode (665 nm/615 nm).

T1 sequence (Q96RG2 999-1251 limits assumed): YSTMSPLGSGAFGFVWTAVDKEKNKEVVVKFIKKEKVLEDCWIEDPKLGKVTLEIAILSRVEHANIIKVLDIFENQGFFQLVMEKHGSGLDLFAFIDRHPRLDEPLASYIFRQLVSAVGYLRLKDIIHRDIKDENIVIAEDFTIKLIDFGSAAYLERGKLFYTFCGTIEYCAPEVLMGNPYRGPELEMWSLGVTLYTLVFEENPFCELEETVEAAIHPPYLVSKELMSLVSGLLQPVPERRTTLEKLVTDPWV

| IC50 [µM] | SMILES |
| --- | --- |
| ≤ 10 | Cc1cc2cc(-c3nc4ccc(C(=O)O)cc4nc3N3CCCc4cc(F)ccc43)ccc2[nH]1 [Example 20, 3-(6-Fluoro-1,2,3,4-tetrahydroquinolin-1-yl)-2-(2-methyl-1H-indol-5-yl)quinoxaline-6-carboxylic acid] |
| ≤ 10 | CN(C)S(=O)(=O)c1ccc2c(c1)CCCN2c1nc2cc(C(=O)O)ccc2nc1-c1ccc(F)cc1 [Example 16, 3-[6-(Dimethylsulfamoyl)-1,2,3,4-tetrahydroquinolin-1-yl]-2-(4-fluorophenyl)quinoxaline-6-carboxylic acid] |
| ≤ 10 | O=C(O)c1ccc2nc(-c3ccc(F)cc3)c(N3CCCc4cc(F)ccc43)nc2c1 [Example 6, 3-(6-Fluoro-1,2,3,4-tetrahydroquinolin-1-yl)-2-(4-fluorophenyl)quinoxaline-6-carboxylic acid] |
| ≤ 10 | O=C(O)c1ccc2nc(-c3ccc4[nH]ncc4c3)c(N3CCCc4cc(F)ccc43)nc2c1 [Example 21, 3-(6-Fluoro-1,2,3,4-tetrahydroquinolin-1-yl)-2-(1H-indazol-5-yl)quinoxaline-6-carboxylic acid] |
| ≤ 10 | CN(C)c1ccc2c(c1)CCCN2c1nc2cc(C(=O)O)ccc2nc1-c1ccc(F)cc1 [Example 17, 3-[6-(Dimethylamino)-1,2,3,4-tetrahydroquinolin-1-yl]-2-(4-fluorophenyl)quinoxaline-6-carboxylic acid] |
| ≤ 10 | O=C(O)c1ccc2nc(-c3cc4cc(Cl)ccc4o3)c(N3CCCc4cc(F)ccc43)nc2c1 [Example 8, 2-(5-Chloro-1-benzofuran-2-yl)-3-(6-fluoro-1,2,3,4-tetrahydroquinolin-1-yl)quinoxaline-6-carboxylic acid] |
| ≤ 10 | NC(=O)c1ccc2c(c1)CCCN2c1nc2cc(C(=O)O)ccc2nc1-c1ccc(F)cc1 [Example 14, 3-(6-Carbamoyl-1,2,3,4-tetrahydroquinolin-1-yl)-2-(4-fluorophenyl)quinoxaline-6-carboxylic acid] |
| ≤ 10 | O=C(O)c1ccc2nc(-c3ccc(F)cc3)c(N3CCCc4cc5c(cc43)OCO5)nc2c1 [Example 24, 3-[2H,5H,6H,7H,8H-[1,3]Dioxolo[4,5-g]quinolin-5-yl]-2-(4-fluorophenyl)quinoxaline-6-carboxylic acid] |
| ≤ 10 | O=C(O)c1ccc2nc(-c3cc4cc(F)ccc4o3)c(N3CCCc4ccccc43)nc2c1 [Example 3, 3-(1,2,3,4-Tetrahydroquinolin-1(2H)-yl)-2-(5-fluorobenzofuran-2-yl)quinoxaline-6-carboxylic acid] |
| ≤ 10 | O=C(O)c1ccc2nc(-c3ccc(F)cc3)c(N3CCCc4ccc(F)cc43)nc2c1 [Example 23, 3-(7-Fluoro-1,2,3,4-tetrahydroquinolin-1-yl)-2-(4-fluorophenyl)quinoxaline-6-carboxylic acid] |
| ≤ 10 | COc1ccc2c(c1)N(c1nc3cc(C(=O)O)ccc3nc1-c1ccc(F)cc1)CCC2 [Example 22, 2-(4-Fluorophenyl)-3-(7-methoxy-1,2,3,4-tetrahydroquinolin-1-yl)quinoxaline-6-carboxylic acid] |
| ≤ 10 | COc1ccc2c(c1)CCCN2c1nc2cc(C(=O)O)ccc2nc1-c1cc2cc(F)ccc2o1 [Example 7, 2-(5-Fluoro-1-benzofuran-2-yl)-3-(6-methoxy-1,2,3,4-tetrahydroquinolin-1-yl)quinoxaline-6-carboxylic acid] |
| ≤ 10 | O=C(O)c1ccc2nc(-c3ccc(F)cc3)c(N3CCCc4ccccc43)nc2c1 [Example 1, 3-(1,2,3,4-Tetrahydroquinolin-1(2H)-yl)-2-(4-fluorophenyl)quinoxaline-6-carboxylic acid] |
| ≤ 10 | O=C(O)c1ccc2nc(-c3ccc(F)cc3)c(N3CCCc4cc(C(=O)N5CCOCC5)ccc43)nc2c1 [Example 15, 2-(4-Fluorophenyl)-3-[6-[(morpholin-4-yl)carbonyl]-1,2,3,4-tetrahydroquinolin-1-yl]quinoxaline-6-carboxylic acid] |
| ≤ 10 | COc1ccc2c(c1)CCCN2c1nc2cc(C(=O)O)ccc2nc1-c1ccc(F)cc1 [Example 5, 2-(4-Fluorophenyl)-3-(6-methoxy-1,2,3,4-tetrahydroquinolin-1-yl)quinoxaline-6-carboxylic acid] |
| ≤ 10 | O=C(O)c1ccc2nc(-c3cc4ccccc4o3)c(N3CCCc4ccccc43)nc2c1 [Example 2, 2-(Benzofuran-2-yl)-3-(1,2,3,4-tetrahydroquinolin-1(2H)-yl)quinoxaline-6-carboxylic acid] |
| ≤ 10 | O=C(O)c1ccc2nc(-c3ccc(F)cc3)c(N3CCCc4cc(Cl)ccc43)nc2c1 [Example 18, 3-(6-Chloro-1,2,3,4-tetrahydroquinolin-1-yl)-2-(4-fluorophenyl)quinoxaline-6-carboxylic acid] |
| ≤ 10 | O=C(O)c1ccc2nc(-c3ccc(F)cc3)c(N3CCCc4c(F)cccc43)nc2c1 [Example 19] |
| ≤ 10 | N#Cc1ccc2c(c1)CCCN2c1nc2cc(C(=O)O)ccc2nc1-c1ccc(F)cc1 [Example 12, 3-(6-Cyano-1,2,3,4-tetrahydroquinolin-1-yl)-2-(4-fluorophenyl)quinoxaline-6-carboxylic acid] |
| ≤ 10 | O=C(O)c1ccc2nc(-c3ccc4c(c3)OCCO4)c(N3CCCc4ccccc43)nc2c1 [Example 4, 2-(2,3-Dihydro-1,4-benzodioxin-6-yl)-3-(1,2,3,4-tetrahydroquinolin-1-yl)quinoxaline-6-carboxylic acid] |
| > 10 | O=C(O)c1ccc2[nH]c(=O)c(N3CCCc4ccccc43)nc2c1 [Example 10, 2-Oxo-3-(1,2,3,4-tetrahydroquinolin-1-yl)-1,2-dihydroquinoxaline-6-carboxylic acid] |
| ≤ 10 | COc1ccc2c(c1)CCCN2c1nc2cc(C(=O)O)ccc2nc1-c1cc2cc(Cl)ccc2o1 [Example 9, 2-(5-Chloro-1-benzofuran-2-yl)-3-(6-methoxy-1,2,3,4-tetrahydroquinolin-1-yl)quinoxaline-6-carboxylic acid] |
| ≤ 10 | O=C(O)c1ccc2nc(-c3ccc(F)cc3)c(N3CCCc4cc(Br)ccc43)nc2c1 [Example 13] |
